Where two headings read alike, the source gives them in different places. Each block holds one compound with its values, some of them ahead of it.
Assays:
Rac1 = Rac1 activity assay (active Rac1 pulldown); assay type: cell-based
Protocol: MDA-MB-231 cells were grown in a 100 mm dish and treated with the compound of Formula 2-1 or 0.05% DMSO at an indicated concentration for 16 hours. Active Rac1 pulldown assays were performed according to the manufacturer's instructions (Termo Fisher Scientifc).

Nm23-H1 [1] = biological target: T1, Nm23-H1 (Homo sapiens, UniProt P15531); experiment: NDPK assay with recombinant Nm23-H1; assay type: biochemical; details: for Relative NDPK activity (±S.D): relative to a DMSO-treated group (DMSO = 1)
T1 sequence (P15531 whole entry): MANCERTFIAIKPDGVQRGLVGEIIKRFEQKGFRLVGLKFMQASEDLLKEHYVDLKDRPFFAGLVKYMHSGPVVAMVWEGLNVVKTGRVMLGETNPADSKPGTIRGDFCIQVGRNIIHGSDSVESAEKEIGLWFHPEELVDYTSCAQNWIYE
Protocol: (§1) 5 ng of recombinant Nm23-H1 was incubated with 5 μM ADP and a test substance (the compound of Formula 2-1, 3-1 or 4-1) in NDPK assay buffer (20 mM HEPES, 3 mM MgCl2) at mom temperature for 1 minute, and cell-based NDPK assay was performed. A cell lysate obtained from 5,000K MDA-MB-231 cells lysed with a protease inhibitor cocktail and an NDPK assay buffer was centrifuged at 8,000 rpm for 10 minutes at 4° C. 40 μL of the lysate was incubated with the test substance for 5 minutes, and then 50 μM UDP was added thereto and reacted with NDPK. ATP consumption was assessed by an ATP determination kit (Molecular probe, USA).

Nm23-H1 [2] = biological target: T1, Nm23-H1; experiment: Surface plasmon resonance analysis of interaction with immobilized Nm23-H1; assay type: binding; details: SPR, 25° C.; for Kd: calculated Kd/Ka; for kon: read-out: Ka
Protocol: The interaction between the compound of Formula 2-1 and Nm23-H1 was analyzed using a surface plasmon resonance instrument (SR7500 DC, Reichert Inc., NY) at 25° C.
Nm23-H1 (1 mg/ml) in 10 mM S.A buffer (pH 4.5) was immobilized using the standard amino coupling at 20 μL/min for 10 minutes on a carboxymethyl dextran hydrogel (CMDH) surface sensor chip (Reichert Technologies, NY) until saturation was achieved.
Different concentrations of the compound of Formula 2-1 (10-160 μM) in binding buffer (10 mM HEPES, pH 7.4, 100 mM NaCl, 1 mM MgCl2, and with or without 2 mM ATP) were allowed to flow over the immobilized Nm23-H1 (approximately 8200 RU) at a rate of 30 μL/min.
The sensor surface was regenerated after each association and dissociation cycle by injecting 2M NaCl for 1 min. Sensorgrams were fitted to a simple 1:1 Langmuir interaction model (A+B⇄AB) using data analysis program Scrubber 2.0 (BioLogic Sofware, Australia, and Kaleida Graph Sofware, Australia).
KD is a value obtained by calculating Kd/Ka.

MDA-MB-231 cells [3] = experiment: Immunofluorescence analysis (F-actin, confocal microscopy); assay type: cell-based; details: FIG. 6A
Protocol: MDA-MB-231 cells were grown on the Secureslip™ (Sigma) cell culture glass cover slip to a confluence of 50 to 70%, and incubated in the presence or absence of the compound of Formula 2-1 for various periods of time. The cells were gently washed with cold HBSS, and then fixed with 4% paraformaldehyde-containing HBSS in RBS for 10 minutes. After washing with HBSS, permeabilization with 0.1% Triton X-100 was performed for 10 minutes at mom temperature. After washing twice with HBSS, the cells were blocked with HBSS containing 3% BSA, 0.2% Tween 20 and 0.2% gelatin at room temperature for 1 hour, and incubated with primary antibody at mom temperature for 1 hour. Then, the cells were incubated with fluorochrome-conjugated species-specific secondary antibodies for 1 hour.
All the antibodies were diluted with 1% BSA-containing HBSS. Coverslips were mounted with anti-fading solution, and viewed using a ×63 objective lens of an LSM510 META (Zeiss) laser scanning confocal microscope.

MDA-MB-231 cells [4] = experiment: Cell-based NDPK assay (MDA-MB-231 cell lysate); details: FIG. 3C, MDA-MB-231 lysate, concentration dependence
Protocol: as §1

Nm23-H1 [5] = biological target: T1, Nm23-H1; experiment: Isothermal titration calorimetry; assay type: binding; details: FIG. 4, with and without ATP
Protocol: An ITC experiment was performed using the ITC200 system (Malvern Inc.), and the data were analyzed using ORIGIN 7.0 program. The concentration of Nm23-H1 protein in the cells was 30 μM, and the syringe contained 300 μM of the activator or 1 mM ATP. The activator was prepared at a concentration of 50 mM in DMSO (dimethyl sulfoxide) and stored at −20° C. ITC buffer contained (pH 7.5) 150 mM NaCl, 3 mM MgCl2 and 20 mM HEPES in up to 2% DMSO. For titration, each 2 μL was injected 20 times 25° C. at intervals of 150 seconds. No evidence of DMSO binding at the nucleotide binding site was observed. The experimental raw data were corrected by subtracting the value for the buffer, and then fitted to a single site binding model. The titration data were fitted using a nonlinear least squares curve-fitting algorithm with three floating variables: stoichiometry (N), dissociation constant (KD), and change of enthalpy of interaction.

MDA-MB-231 luc cells = experiment: Breast cancer metastasis model (MDA-MB-231 luc cells in mammary fat pad); assay type: in vivo, nude mice
Excerpt: In order to confirm the metastasis suppressing activity of the compound of Formula 2-1 according to the present disclosure in an actual animal model, MDA-MB-231 luc cells were applied to a breast cancer metastasis model.

MDA-MB-231 cells [6] = experiment: Invasion assay and transwell migration assay in MDA-MB-231 cells; assay type: cell-based
Protocol: (§2) When cells reached a confluence of 70%, the cells were treated with the compound of Formula 2-1 for 16 hours. 1×10^5 cells were suspended in PBS-free medium and added onto a Boyden chamber membrane. 10% PBS-containing culture was added to the bottom of the membrane. The chamber was incubated at 37° C. under 5% CO2 for 4 hours. The migrated cells were fixed and stained with crystal violet/methanol. The cells were photographed, and the migrated cells were counted and normalized to control cells.

A549 cells = experiment: Transwell migration and matrigel invasion of A549 cells; assay type: cell-based; details: FIG. 7B
Protocol: as §2

Nm23-H2 = Nm23-H2 (Homo sapiens, UniProt P22392); experiment: NDPK activity assay on Nm23-H2; assay type: biochemical; details: FIG. 3D
Nm23-H2, sequence (P22392 whole entry): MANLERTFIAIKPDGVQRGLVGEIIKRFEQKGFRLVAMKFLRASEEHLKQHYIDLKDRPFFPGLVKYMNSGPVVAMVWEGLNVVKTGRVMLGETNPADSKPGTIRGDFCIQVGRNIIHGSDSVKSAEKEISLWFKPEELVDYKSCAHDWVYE

[7] = FIG. 7A, MDA-MB-231 cells, different concentrations

NDPK activity of Nm23-H1 (Nm23-H1 [1]; FIG. 3A, concentration dependence): increased depending on the concentration | Relative NDPK activity (±S.D) (Nm23-H1 [1]): 4.04 (±0.13) | Kd (Nm23-H1 [2]; 2 nM ATP): 1.49 ± 0.03 µM | kon (Nm23-H1 [2]; 2 nM ATP): 71 ± 1 M⁻¹ s⁻¹ | Kd (Nm23-H1 [2]; without ATP): 17.9 ± 0.2 µM | kon (Nm23-H1 [2]; without ATP): 78 ± 1 M⁻¹ s⁻¹ | NDPK activity on Nm23-H2 (Nm23-H2): showed the same activity
Compound: COc1ccc(/C=C/[C@H]2CCC=C[C@@H]2c2ccc(OC)c(OC)c2)cc1OC [Formula 2-1]
activity of Rac1 (Rac1; FIG. 6B, MDA-MB-231 cells, 16 hours): reduced the activity of Rac1 in a concentration-dependent manner | effect on Rac1 activity after knockdown of Nm23-H1 (Rac1; FIGS. 6C and 6D): abolished by knockdown of Nm23-H1 | V0, Km of the enzyme (NDPK activity depending on the concentration of UDP) (Nm23-H1 [1]; FIG. 3B): Km-type activity similar to that of a conventional enzyme activator | change of F-actin / cell morphology (MDA-MB-231 cells [3]): ruffles decreased and intercellular contact increased | cell-based NDPK activity (MDA-MB-231 cells [4]): increased depending on the concentration | direct interaction with Nm23-H1 (ITC) (Nm23-H1 [5]): occurred and was further enhanced in the presence of ATP | metastasis of the cells to the lung (MDA-MB-231 luc cells; FIG. 8, 10 mg/kg daily, 4 weeks): decreased | volume of the tumor (MDA-MB-231 luc cells; FIG. 9, 10 mg/kg daily): decreased | cells that metastasized to the lung (MDA-MB-231 luc cells; FIG. 10, 10 mg/kg daily): statistically significantly decreased | matrigel invasion (MDA-MB-231 cells [6]; [7]): reduced | transwell migration (MDA-MB-231 cells [6]; [7]): reduced | effect on migration/invasion after knockdown of Nm23-H1 and Nm23-H2 (MDA-MB-231 cells [6]; FIG. 7C): reduced by knockdown of Nm23-H1 and Nm23-H2 | matrigel invasion (A549 cells): reduced | transwell migration (A549 cells): reduced

Relative NDPK activity (±S.D) (Nm23-H1 [1]): 4.11 (±0.16)
Compound: COc1ccc(/C=C/c2ccccc2-c2ccc(OC)c(OC)c2)cc1OC [Formula 3-1]

Relative NDPK activity (±S.D) (Nm23-H1 [1]): 2.41 (±0.29)
Compound: COc1ccc(/C=C/[C@H]2CCCCC2c2ccc(OC)c(OC)c2)cc1OC (some centres unmarked) [Formula 4-1]
